# Results as given in patent publication US20250000907A1, “ENGINEERED IMMUNE CELLS WITH REDUCED SIRT6 EXPRESSION” (H. LEE MOFFITT CANCER CENTER AND RESEARCH INSTITUTE, INC., priority 2021, published 2025).
# Legend:
# [1] = system: patient-derived human NSCLC tumor cells; experiment: LDH cytotoxic assay of human NSCLC TILs co-cultured with autologous tumor cells; type: cell-based; conditions: ex vivo expanded autologous TILs co-cultured with patient-derived NSCLC tumor cells
# Method: Evaluation of functional cytotoxic activity was performed using Pierce™ LDH Cytotoxicity Assay Kit (Thermo Fisher Scientific) according to the manufacturer's protocol. B16F10 cells or human NSCLC autologous tumor cells were used as target cells. Mouse CD8+ enriched T cells from gp100-stimulated Pmel splenocytes or human NSCLC TILs were used as effector cells. Target tumor cells were co-cultured with effector cells in 96-well round-bottom microplates at the indicated effector:target ratios with and without Sirt6 inhibitor. After 6 hr, the percentage of specific LDH release was calculated according to the following formula: % cell lysis=(experimental value−effector cells spontaneous release−target cells spontaneous release)×100/(target cells maximum release−target cells spontaneous release), where “experimental” corresponds to the experimental signal value, “effector spontaneous” to spontaneous release of LDH from effector cells alone, “target spontaneous” to spontaneous release of LDH from target cells alone and “maximum release” to the maximum release of LDH from target cells in medium containing 1% Triton X-100.
# [2] = system: activated CD3+ T cells; experiment: RT-PCR mRNA levels in activated T cells; type: cell-based, mouse
# Excerpt: Total RNA was extracted using the RNeasy Mini Kit (Qiagen; cat. #74106) and reverse transcribed using iScript™ (Biorad). cDNAs were amplified using the “SsoAdvanced™ Universal SYBR® Green Supermix” kit (Biorad) in the CFX Connect™ Real-Time System (Biorad). Sense and antisense primers used were for mouse Sirt6, GLUT1, HK, PFK, LDH, GLS and ASCT2 (primers designed by Biorad and provided as a mixture, PrimePCR™ SYBR® Green Assay).
# [3] = system: Pmel T cells stimulated with gp100; experiment: Intracellular granzyme B staining by flow cytometry; type: cell-based, mouse; conditions: activated Pmel T cells, OSS vs. DMSO, FIG. 7B
# Method: For intracellular cytokine staining, cells were firstly stimulated with phorbol 12-myristate 13-acetate (PMA, 10 ng/ml, Sigma) and ionomycin (1 μM/ml, Sigma) for 1 hour followed by GolgiPlug™ treatment (1% c, BD Biosciences) for 6 h and then stained with IFN-γ (BV711, BD Biosciences) and Granzyme B (Alexa647, Biolegend). Cells were acquired on a BD FACSymphony™ A5 and LSR II (Becton Dickinson), and data were analyzed with FlowJo software Version 10.0 software.
# [4] = system: human TILs from NSCLC patient tumor samples; experiment: IFN-γ ELISPOT assay of human NSCLC TILs; type: cell-based; conditions: TILs from 6 NSCLC patients, OSS vs. DMSO
# Method: hTILs were maintained in RPMI 1640 Medium, supplemented with 10% human AB serum (Valley Biomedical, Inc.), 1 mM Hepes (Sigma-Aldrich), 1% P/S (Thomas Scientific Inc), 50 μg/ml Gentamicin (ThermoFisher Scientific), 50μM β-mercaptoethanol (ThermoFisher Scientific) and 6000 U/ml of recombinant human IL-2 (Peprotech). For metabolic and functional assays, hTILs were cultured in completed RPMI medium, IL-2 free, on plate-bound anti-CD3 antibody (5 μg/ml; OKT-3, BioXCell) in the presence of vehicle or OSS (Selleck Chemicals) at the indicated concentrations.
# The number of IFN-γ producing cells was evaluated in an ELISPOT assay. Briefly, mouse TILs were plated at 1×10^5 cells and co-cultured with 1×10^3 irradiated B16F10 tumor cells (50 Gray) in the presence of the indicated concentrations of OSS, in a 96-well nitrocellulose flat-bottomed plate (ELISPOT plate, Millipore) pre-coated with an anti-mouse IFN-γ antibody (AN-18, Mabtech, Inc.) and incubated for 48 hr at 37° C. […] After washing steps and successive biotinylated anti-IFN-γ antibody (R4-6A2, Mabtech, Inc.) and Streptavidin-HRP (BD Bioscience) labeling, spots were detected using AEC Substrate Kit (BD Biosciences) and counted using an AID ELISPOT Reader System (Autoimmun Diagnostika GmbH).
# [5] = system: OT-II and Pmel T cells; experiment: CFSE proliferation assay; type: cell-based, mouse; conditions: upon antigenic stimulation ex vivo, 3 days, FIG. 7A
# Method: Pmel cells and OT-II cells were first labelled with 5 μM of CellTrace™ carboxyl fluorescein succinimidyl ester (CFSE, Thermo Fisher Scientific) for 30 min at room temperature (RT) and then stimulated with gp100 or remained non-stimulated with and without Sirt6 inhibitor (OSS) for 3 days.
# [6] = activated CD3+ T cells, FIG. 8K
smiles,measurement,setting,value
O=C(Nc1ccc(O)c(C(=O)O)c1)c1cccc(NC(=O)c2ccco2)c1 [OSS_128167],TIL cytotoxic activity,[1],enhanced
same,mRNA expression levels of glutaminase (GLS),[2]; [6],increased
same,mRNA expression levels of glutamine transporter (ASCT2),[2]; [6],increased
same,mRNA expression levels of glucose transporter (Glut1),"[2]; activated T cells, FIG. 8G",increased
same,mRNA expression levels of hexokinase (HK1),"[2]; activated T cells, FIG. 8G",increased
same,mRNA expression levels of lactate dehydrogenase A (LDHA),"[2]; activated T cells, FIG. 8G",increased
same,mRNA expression levels of phosphofructokinase P (PFKP),"[2]; activated T cells, FIG. 8G",increased
same,granzyme B expression,[3],increases
same,IFN-γ production,[4],increased
same,proliferation (CFSE dilution),[5],increased
